Test results reported in patent US7252953B2, “Method of detecting and preventing Alzheimer's disease, particularly at prodromal and early stages” (United States of America Department of Veterans Affairs, priority 2002, dated 2007).

How the values were obtained:
TNF-α [1] = experiment: TNF-α release in N9 clonal murine microglial cells; type: cell-based; conditions: for TNF-α release induced by the activator alone: single dose
Experimental: (§1) Primary microglial cultures were prepared from neonatal mouse (C57BL6) brains as previously described (Reference 29) and maintained in Delbecco's modified Eagle's medium with F-12 nutrient mixture (DMEM/F12) containing 10% fetal bovine sera (FBS) and antibiotics. N9 clonal murine microglial cell cultures were maintained in Iscoves modified Delbecco's medium (IMDM) containing 5% heat-inactivated FBS, 2 mM L-glutamine, 50 μM 2-mercaptoethanol and antibiotics. Treatment of both primary and N9 microglial cells were performed under serum-free conditions. Freshly solublized Aβ (BioSource, Camarillo, Calif.) peptides were prepared and characterized as previously described (References 30 and 44) and were used in all in vitro experiments. Unless specified, cells were always pretreated with sAβ for 5 min and then followed by challenge with α-thrombin (100 nM or as indicated), glutamate (2 mM) or LPS (5 ng/ml).
(§2) TNF-α production in microglial culture media was measured and standardized as previously described (Reference 29).
(§3) Given our results that sAβ disrupts GRK function and inhibits GPCR desensitization in microglia, we next investigated whether such signaling dysregulation might lead to cellular functional changes in microglia. Both primary and N9 clonal murine microglial cultures were used and TNF-α secretion in culture media was measured as an outcome. […] Moreover, the potentiation effect of sAβ on thrombin and glutamate-induced microglial activation was dose-dependent, with a minimal effective concentration (ECmin) of 20 nM and a maximal EC (ECmax) of 500 nM. Furthermore, the enhancement effect was not observed if sAβ was given after (10 min) thrombin or glutamate treatments. […] Together with the evidence that sAβ inhibits GRK-GPCR interactions and causes prolongation of GPCR signaling, we conclude that sAβ, by disrupting GRK function, alters microglial reactivity to specific GPCR activators.
FIG. 6A, pretreatment with sAβ1-42 potentiated (p<0.01) TNF-α release induced by increasing doses of thrombin (Thr) as indicated from primary mouse brain microglial cultures. n=4. […] The ECmin and ECmax for sAβ's potentiation are approximately 20 nM and 500 nM, respectively. n=6.

GRK5 = GRK5 subcellular distribution in sAβ-treated microglial cells (immunocytochemistry, semi-quantified); type: cell-based, murine; conditions: ICC; for translocation of GRK5 from cell membrane to cytosol: 5 min, primary murine microglial cells, serum-free medium
Experimental: (§4) Primary microglial cultures were prepared from neonatal mouse (C57BL6) brains as previously described (Reference 29) and maintained in Delbecco's modified Eagle's medium with F-12 nutrient mixture (DMEM/F12) containing 10% fetal bovine sera (FBS) and antibiotics. N9 clonal murine microglial cell cultures were maintained in Iscoves modified Delbecco's medium (IMDM) containing 5% heat-inactivated FBS, 2 mM L-glutamine, 50 μM 2-mercaptoethanol and antibiotics. Treatment of both primary and N9 microglial cells were performed under serum-free conditions.
Microglial cells were seeded onto poly-L-lysine-coated 8-chamber slides at a density of 1×10^4/well. After various treatments, cells were immediately fixed with pre-chilled (4° C.) 5% acetic acid in methanol for 45 min at 4° C., followed by washing with PBS. The fixed cells were blocked and double-stained with phalloidin-FITC (1:1,000) and anti-GRK5 (1:500) or GRK2 (1:500). Secondary antibody-Cy3 conjugates (1:500) staining, washing, mounting and confocal microscopic visualization were performed routinely as previously described (Reference 29).
Briefly, the selected cell image corresponding to GRK staining, was copied, enlarged, inverted and rotated to an appropriate position for quantification with NIH Image. […] FIGS. 3E and F show the examples of profiles for the solid-line indicated levels in FIGS. 3C and D, respectively. The dark and light grey areas in FIGS. 3E and F represent membrane and Cyto, respectively. The sum of areas for membrane and Cyto from all slices in each cell represents GRK subcellular distribution in this particular cell. For each treatment, 20 randomly selected cells were quantified and the average data were shown.
Microglial-mediated inflammation is an important pathological component of AD (Reference 28). […] Thrombin, a serine protease is known to activate protease-activated GPCRs, (PARs) such as PAR1 (Reference 29) and PAR4 in microglia.
N9 microglial cells were treated with sAβ1-42 (500 nM) for 5 minutes. […] The detailed methods for semi-quantification of GRK subcellular distribution are described in Methods section (above).

[Ca^2+]i = Ca2+ imaging (Fluo-4) in microglial cells; type: cell-based, murine
Experimental: as §1
We measured [Ca^2+]i in microglial cells using Fluo-4 (2 μM) with the aid of a Nikon BioRadiance triple laser scanning confocal microscope. Image collection, quantification and data analysis were performed as previously described (Reference 29).
(§5) In previous studies, we found thrombin signaling via PARs in microglial cells involving [Ca^2+]i increase and transient activation of both p38 and p44/42 mitogen-activated protein kinases (MAPKs) (Reference 29). To understand potential consequences of GRK dysfunction induced by sAβ, for these studies we also assessed changes in thrombin signaling in sAβ-pretreated microglial cells.
(§6) FIG. 5A, N9 microglial cells were pre-treated with 500 nM sAβ1-42 (arrow “1”) followed by 100 nM thrombin treatment (arrow “2”). Changes in [Ca^2+]i were measured as previously described (Reference 29) from three separate experiments. […] For both FIGS. 5B and 5C, lane M=Marker, 1=Control (0 min), 2=Control (25 min), 3=Aβ1-42 (25 min), 4=Thrombin (20 min), 5=Aβ1-42+thrombin (20 min post-Aβ), 6=Control (24 h), 7=Aβ1-42 (24 h), 8=Thrombin (24 h) and 9=Aβ1-42+thrombin (24 h post-Aβ). “P” and “T” indicate phosphorylated and total p38 or p44/42 MAPKs, respectively.

TNF-α [2] = experiment: TNF-α release in primary mouse brain microglial cultures; type: cell-based; conditions: 5 min pretreatment, FIG. 6A
Experimental: as §1, §2, §3
FIG. 6A, pretreatment with sAβ1-42 potentiated (p<0.01) TNF-α release induced by increasing doses of thrombin (Thr) as indicated from primary mouse brain microglial cultures. n=4. […]

PAR4-GRK5 = experiment: GRK-PAR binding in microglial cells by IP and WB: PAR4-GRK5; type: cell-based, murine; conditions: thrombin 100 nM alone, 30 seconds, compared to untreated microglial cells
Experimental: as §4, with “conditions. Freshly solublized Aβ (BioSource, Camarillo, Calif.) peptides were prepared and characterized as previously described (References 30 and 44) and were used in all in vitro experiments. […]” for “conditions.”
(§7) Cultured cells were lysed in pre-chilled 2×IP buffer I (Tris, 20 mM, pH 7.4; NaCl, 300 mM; EDTA, 2 mM; 2 mM EGTA, pH 8.0; 0.4 mM sodium ortho-vanadate, 2% Triton X-100; 1% NP-40; 0.4 mM PMSF) supplemented both with phosphatase and protease inhibitor cocktails. After centrifugation, the supernatants were collected and total protein concentrations were determined by the bicinchoninic acid assay (BCA). […] Both antibodies to GRK2 and GRK5 (Santa Cruz) were diluted 1:500 for WB, other routine procedures, WB for total and phospho-p44/42 MAPK, and semi-quantitative analysis of protein band density were performed as previously described (Reference 29). […]

PAR4-GRK2 = experiment: GRK-PAR binding in microglial cells by IP and WB: PAR4-GRK2; type: cell-based, murine; conditions: thrombin 100 nM alone, 30 seconds, compared to untreated microglial cells
Experimental: as §4, with “conditions. Freshly solublized Aβ (BioSource, Camarillo, Calif.) peptides were prepared and characterized as previously described (References 30 and 44) and were used in all in vitro experiments. […]” for “conditions.”
as §7

PAR1-GRK2 = experiment: GRK-PAR binding in microglial cells by IP and WB: PAR1-GRK2; type: cell-based, murine; conditions: thrombin 100 nM alone, 30 seconds, compared to untreated microglial cells
Experimental: as §4, with “conditions. Freshly solublized Aβ (BioSource, Camarillo, Calif.) peptides were prepared and characterized as previously described (References 30 and 44) and were used in all in vitro experiments. […]” for “conditions.”
as §7

p38 MAPK = p38 MAPK phosphorylation in microglial cells (WB); type: cell-based, murine; conditions: substance alone
Experimental: as §1
(§8) Cultured cells were lysed in pre-chilled 2×IP buffer I (Tris, 20 mM, pH 7.4; NaCl, 300 mM; EDTA, 2 mM; 2 mM EGTA, pH 8.0; 0.4 mM sodium ortho-vanadate, 2% Triton X-100; 1% NP-40; 0.4 mM PMSF) supplemented both with phosphatase and protease inhibitor cocktails. After centrifugation, the supernatants were collected and total protein concentrations were determined by the bicinchoninic acid assay (BCA). Equal amounts (250 μg) of cell lysates from each group were mixed with 20 μl (˜5 μg) of either PAR1 or PAR4 antibodies, and brought to a total volume of 1 ml in 1×IP buffer. Following a 1 hour incubation at 4° C., appropriate secondary antibody-agarose conjugates were added followed by incubation (30 min with agitation), centrifugation and sufficient washes. The pellets were resuspended in 30 μl of electrophoresis sample buffer and boiled for 5 min. The supernatants were directly used for polyacrylamide sodium dodecyl sulfate gel electrophoresis (SDS-PAGE) and WB analysis. To prepare subcellular fractions of brain samples, we homogenized fresh or fresh-frozen tissues in Tris buffered saline solution (Tris, 10 mM, pH 7.4; NaCl, 150 mM; EDTA, 1 mM; 1 mM EGTA, pH 8.0; 0.2 mM sodium ortho-vanadate) supplemented with protease inhibitor cocktails. After centrifugation (12,000 g at 4° C. for 15 min), the supernatants were collected as cytosolic fractions. The pellets were resuspended in 1×IP buffer containing protease inhibitor cocktail. Following brief sonication and centrifugation (12,000 g at 4° C. for 15 min), the supernatants were collected as membrane fractions. Both antibodies to GRK2 and GRK5 (Santa Cruz) were diluted 1:500 for WB, other routine procedures, WB for total and phospho-p44/42 MAPK, and semi-quantitative analysis of protein band density were performed as previously described (Reference 29).
as §5, §6

p44/42 MAPK = p44/42 MAPK phosphorylation in microglial cells (WB); type: cell-based, murine; conditions: substance alone
Experimental: as §1, §8, §5, §6

[3] = 5 min pretreatment, N9 cells, FIG. 6B
[4] = within 20 min post-Aβ treatment

Question: Which “TNF-α release induced by the activator alone” value (TNF-α [1]; N9 cells, FIG. 6B) does the source give for `N[C@@H](CCC(=O)O)C(=O)O` [glutamate] here?
Answer: significantly stimulated

Question: “sAβ1-40: Freshly solubilized soluble β-amyloid 1-40 peptide (BioSource)” was tested. Which “translocation of GRK5 from cell membrane to cytosol” value (GRK5; 50 nM peptide) did it give?
Answer: not

Question: With “sAβ1-42: Freshly solubilized soluble β-amyloid 1-42 peptide (BioSource), mixture of monomeric and oligomeric Aβ” as the molecule, how does the “translocation of GRK5 from cell membrane to cytosol” value (GRK5; 50 nM peptide) read?
Answer: To a lesser extent, similar GRK5 changes were also observed

Question: And the “translocation of GRK5 from cell membrane to cytosol” value (GRK5; 500 nM peptide)?
Answer: induced a rapid translocation of GRK5 from cell membrane to cytosol

Question: And the “translocation of GRK5 from membrane to cytosol compartment” value (GRK5; 500 nM, 5 minutes, N9 microglial cells)?
Answer: induced a rapid translocation of GRK5 from membrane to cytosol compartment

Question: And the “effect of sAβ pretreatment on LPS-induced TNF-α release” value (TNF-α [1]; [3])?
Answer: not

Question: And the “effect of sAβ pretreatment on glutamate-induced TNF-α release” value (TNF-α [1]; [3])?
Answer: dose-dependently potentiated

Question: And the “effect of sAβ pretreatment on thrombin-induced TNF-α release” value (TNF-α [1]; [3])?
Answer: dose-dependently potentiated

Question: And the “enhancement of TNF-α release when sAβ is given after thrombin or glutamate (post-treatment)” value (TNF-α [1]; sAβ given 10 min after thrombin or glutamate)?
Answer: not

Question: And the “change of free [Ca^2+]i” value ([Ca^2+]i; sAβ1-42 500 nM alone)?
Answer: slow and moderate increase

Question: What about the “time for [Ca^2+]i to return to basal levels” value ([Ca^2+]i; sAβ1-42 500 nM alone) of the same molecule?
Answer: ≤ 4 min

Question: What about the “effect of sAβ pretreatment on thrombin-induced TNF-α release” value (TNF-α [2]) of the same molecule?
Answer: potentiated

Question: Which results are given for thrombin?
Answer: increase of PAR4 binding to GRK5 (PAR4-GRK5): ~4 fold; increase of PAR4 binding to GRK2 (PAR4-GRK2): ~2 fold; TNF-α release induced by the activator alone (TNF-α [1]; N9 cells, FIG. 6B): significantly stimulated; [Ca^2+]i above basal levels after the rapid decrease ([Ca^2+]i; thrombin alone (100 nM)): approximately 100 nM; change of [Ca^2+]i ([Ca^2+]i; thrombin alone (100 nM)): steep and sharp increase; duration of the [Ca^2+]i level above basal ([Ca^2+]i; thrombin alone (100 nM)): at least 4 min; change of [Ca^2+]i ([Ca^2+]i; thrombin alone (100 nM), listed as Thrombin): sharp increase and rapidly decrease; increase of PAR1 binding to GRK2 (PAR1-GRK2): ~30 fold; p38 MAPK phosphorylation (p38 MAPK; 24 h): returned to basal levels; p38 MAPK phosphorylation (p38 MAPK; [4]): increased phosphorylation; p44/42 MAPK phosphorylation (p44/42 MAPK; 24 h): returned to basal levels; p44/42 MAPK phosphorylation (p44/42 MAPK; [4]): increased phosphorylation
